Data published in patent US12622884B2, “Treatment and prevention of glioblastoma” (CONSEJO SUPERIOR DE INVESTIGACIONES CIENTÍFICAS, priority 2018, dated 2026).
Where a name gives a salt, the structure may show the parent alone.

Legend:
[1] = system: U-87 xenografts; assay: Xenograft of U-87 adherent cells in NSG mice; type: in vivo; conditions: intraperitoneal; for decrease in the tumor volume: 10 mg/Kg body daily, from tumor volume around 100 mm^3, versus vehicle; for adverse effects: 10 mg/Kg body weight daily, NSG mice
Experimental: (§1) FIG. 4.—ICI 118,551 and Propranolol delay the tumor progression of U-87 xenografts in NSG immunodeppressed mice. A Xenograft using U-87 adherent cells: Mice (n=30) were inoculated with 10^6 cells of U-87 glioblastoma cell line, in the flank, as xenografts. Tumor volume was measured every 3 days. In A, when tumors reached around 100 mm^3 volume, mice were divided in 3 groups (n=9-10). One group was treated daily with 10 mg/Kg body weight with propranolol, another group with the same dose of ICI118,551, and the third group only with vehicle (DMSO). Drugs were intraperitoneally injected. […] B Xenograft using U-87 gliospheres: Mice were inoculated with 10^5 spheroids from the glioblastoma cell line U-87. Mice were divided in 3 groups of 9-10 animals and treated immediately after xenograft for 5 consecutive days with either 3 mg/Kg body weight of propranolol, or ICI 118,551, or only vehicle. The tumors were measured from the moment they were big enough to be sized.
Male 7-8 weeks old NOD scid gamma (NSG) mice were injected in the dorsal flank with a total of either 10^6 cells of U-87 cell line (A), or with 10^5 cells coming from disaggregated gliospheres (B). In the case of A, when tumor size reached 100 mm^3 volume, mice were divided at random in 3 groups, of 9/10 mice each. One group was treated with intraperitoneal daily injection of 10 mg/Kg body of propranolol, other group with the same amount of ICI118,551, and finally, a control group was injected with vehicle. Tumor size was measured by a caliper every 2-3 days. Mice were sacrificed when tumor volume average of the control group reached an end point established on our ethical procedures.
Xenografts were made using U-87 adherent cells: Mice (n=30) were inoculated with 10^6 cells of U-87 glioblastoma cell line, in the flank, as xenografts. Tumor volume was measured every 3 days. When tumors reached around 100 mm^3 volume, mice were divided in 3 groups (n=9-10). One group was treated daily with 10 mg/Kg body weight with propranolol, another group with the same dose of ICI118,551, and the third group only with vehicle (DMSO). Drugs were intraperitoneally injected.

[2] = system: U-87 gliospheres xenografts; assay: Xenograft of U-87 gliospheres in NSG mice; type: in vivo; conditions: 3 mg/Kg body weight, 5 consecutive days immediately after xenograft, intraperitoneal
Experimental: as §1, with “Mice were divided in 3 groups of 9-10 animals and treated immediately after xenograft for 5 consecutive days with either 3 mg/Kg body weight of propranolol, or ICI 118,551, or only vehicle.” left out
In the case of B, mice were divided in 3 groups of 10 mice, and were treated the first 5 days after xenograft establishment with intraperitoneal injection of propranolol, or ICI118,551 at 3 mg/Kg body, or vehicle. […] From this moment on, tumor size was measured every 2-3 days along 4 weeks, and then the mice were sacrificed.
On the other hand, xenografts using U-87 gliospheres were also used. […] The tumors were measured from the moment they were big enough to be sized.

[3] = system: U-87 glioblastoma cell line; assay: RT-qPCR of stemness and neural differentiation marker mRNAs in U-87; type: cell-based, human; conditions: 48 hours; mRNA by RT-qPCR; dose-dependent
Experimental: FIG. 3.—ICI 118,551 and propranolol decreased stemness biomarker expression in U-87 glioblastoma cell line, but increased the neural differentiation markers. A: The treatment of U-87 with ICI-118,551 and propranolol during 48 hours decreases the expression of stemness associated genes as GD3 synthase, ALDH1, Prominin (CD133), Sox2 and Nanog, whereas B: favors the expression of genes involved in neural cell differentiation (MAP2, GFAP and Nestin). Expression of the corresponding mRNAs was measured by RT-qPCR.
(§2) RNAt was isolated using the Direct-zol RNA MiniPrep Kit (ZymoResearch) from U-87 cells washed with PBS, scraped off the plates and spun down. The pellet was treated with the Tri Reagent and homogenized for 5 min at room temperature before using the MiniPrep Kit as per instructions. The quality and concentration of the RNAt was evaluated by measuring the absorbance at 260, 230 and 280 nm with an ND-1000 spectrophotometer (NanoDrop Technologies, Wilmington, DE, USA). In all cases, the expected 260/280 (˜2.0) and 260/230 (2.0-2.2) ratio values accepted for pure RNA were obtained. To detect the two target miRs, 0.5 μg of the RNAt extracted from the cells was used for hybridization prior to measurement on the dual amperometric platform.
(§3) The qScript microRNA Quantification System (Quanta BioSciences, Inc., Gaithersburg, MD, USA) was used to assess miR-21 and miR-205 expression. In brief, cDNA was synthesized using the qScript microRNA cDNA Synthesis Kit, using 10 ng of initial RNA per PCR reaction. The PCR conditions consisted of an initial activation at 50° C. for 2 min, followed by 40 cycles of 95° C. for 5 s, and 60° C. for 30 s in LightCycler 480 Real-Time PCR System (Roche). The Ct (threshold cycle) value for each primer was normalized to that of RNU6. To assess gene expression, cDNA was synthesized with the transcriptor first strand cDNA synthesis Kit (Roche) under the following PCR conditions: 40 amplification cycles of 95° C. for 10 seconds, 60° C. for 30 seconds and 72° C. for 30 seconds. ACTB was used as a reference gene for normalization and the real-time PCR reactions were performed in triplicate using the PerfeCTa SYBR Green SuperMix (Quanta BioSciences) for miRNAs and the FastStart Universal SYBR Green Master (Roche) for gene expression. The expression level of each gene was determined by the relative standard curve method and the primer sequences for target genes were obtained from the Universal ProbeLibrary Assay Design Center.
However, mRNA from genes involved in neural cell differentiation, such as MAP2, GFAP and nestin (FIG. 3B), were increased in their expression (FIG. 3B). The expression of the corresponding mRNAs was measured by RT-qPCR.

[4] = system: U87 Glioblastoma Cell Line; assay: Expression of miR-21 and its targets PDCD4 and PTEN in U87 cells; type: cell-based, human; conditions: 48 hours, increasing amounts
Experimental: FIG. 5. […] Furthermore, ICI increases the expression levels of […] targets such as PDCD4-proapoptotic agents1 (middle)—and PTEN—a glioblastoma suppressor (right).
as §2
as §3, with “ACTB was used as a reference gene for normalization and the real-time PCR reactions were performed in triplicate using the PerfeCTa SYBR Green SuperMix (Quanta BioSciences) for miRNAs and the FastStart Universal SYBR Green Master (Roche) for gene expression.” left out, “Center. […]” for “Center.”

[5] = system: U-87 gliospheres; assay: Gliosphere formation of U-87 cells under drug treatment; type: cell-based, human; conditions: 10 to 100 μM; 72 hours of drug treatment
Experimental: (§4) A: photographs of gliospheres formation after 72 hours of drug treatment. U-87 cells were cultured in medium for gliosphere formation, and either treated with vehicle (control, on the left), or with ICI 118,551, and propranolol at different concentrations from 10 to 100 μM. […] B: Limit dilution assay experiment (ELDA) for oncosphere formation in the presence of different concentrations of ICI 118,551 and propranolol.
(§5) Following the protocol described elsewhere (Diaz-Guerra, E.; Lillo, M. A.; Santamaria, S.; Garcia-Sanz, J. A., Intrinsic cues and hormones control mouse mammary epithelial tree size. FASEB J 2012, 26 (9), 3844-53). Cells were detached from the plate with trypsin (Invitrogen) and plated in complete medium (DMEM/F-12 medium with GlutaMAX) supplemented with B27 (Gibco), 10 ng/ml epidermal growth factor (EGF: Invitrogen) and 10 ng/ml basic fibroblast growth factor (bFGF: Millipore) and they were maintained at 37° C. in 5% CO2. For the ELDA assay cells were dissociated to single cells with trypsin, and seeded at different dilutions (from 100 to 10 for U-87 cells) in sphere complete media following procedures described in Ponti, D et al., (Cancer Res 2005, 65 (13), 5506-11.). The final number of spheres was quantified at 14 days, and the final data and statistical significance was obtained with ELDA software (Hu, Y. et al J Immunol Methods 2009, 347 (1-2), 70-8). […]

[6] = system: U-87 stem cells; assay: Extreme limited dilution assay (ELDA) for oncosphere formation; type: cell-based, human; conditions: different concentrations; spheres quantified at 14 days
Experimental: as §4, §5

[7] = system: human glioblastoma cell line U-87; assay: U-87 cell viability by luminescence (ATP-Glo kit, Promega); type: cell-based
Excerpt: FIG. 1.—ICI 118,551 is active as an antitumoral agent decreasing cell viability in the glioblastoma cell line and including the stem cell subpopulation. A: U-87 cell line expresses beta-adrenergic receptors type 2, as shown by confocal microscopy using a monoclonal antibody against human β2 adrenergic receptors (Abcam). B: ICI-118551 decreases viability of the human glioblastoma cell line U-87 either when grown in liquid suspension as oncospheres (gliospheres, stem cells) or in adhesion. Viability was quantified by luminescence using the ATP-Glo kit from Promega. C. β2-adrenergic receptor expression in the human glioblastoma cell line U87 was confirmed by mRNA expression by quantitative PCR in 3D cultures as gliospheres (HUVEC as positive control for β2-adrenergic receptor expression).

[8] = system: β2-adrenergic receptor; conditions: reported in the literature; cited from earlier work

| Structure (SMILES) | decrease in the tumor volume [1] | adverse effects [1] | rate of tumor growth versus vehicle treated mice [2] | expression of neural cell differentiation genes MAP2, GFAP and nestin [3] | expression of stemness associated genes GD3 synthase, ALDH1, prominin (CD 133), Sox2 and nanog [3] | expression level of PDCD4 [4] | expression level of PTEN [4] | mRNA-21 expression ([4]; compared with Propranolol) | inhibition of gliosphere formation [5] | ELDA dilution factor compared to control [6] | differential sensitivity to the drug, adhesion versus 3D gliospheres ([7]; 2D cells in adhesion compared with 3D gliospheres in suspension) | viability of the cancer stem cells ([7]; 3D gliospheres, low μM concentrations) | viability of U-87 ([7]; different doses, grown in liquid suspension as oncospheres (gliospheres) or in adhesion, ATP-Glo luminescence) | β2/β1 selectivity ratio [8] |
| --- | --- | --- | --- | --- | --- | --- | --- | --- | --- | --- | --- | --- | --- | --- |
| Cc1ccc(OCC(O)C(C)NC(C)C)c2c1CCC2 [ICI 118,551, erythro-D,L-1(methylinden-4-yloxy)-3-isopropylaminobutan-2-ol] | around 30% | no adverse effects observed | significant delay | increased | decreased significantly | increases | increases | notably decreased | dose-dependent inhibition | increases | more sensitive the cells grown in adhesion than the 3D gliospheres | strongly affects the viability | decreased the viability | at least 123 |
| CC(C)NCC(O)COc1cccc2ccccc12 (stereo not shown) [propranolol] | around 30% | no adverse effects observed | significant delay | increased | decreased significantly | – | – | – | dose-dependent inhibition | increases | – | – | – | – |
| COc1ccc(OC)c(C(O)C(C)NC(C)(C)C)c1 (racemic) [Butoxamine, DL-erythro-α-(2,5-dimethoxyphenyl)-β-t-butyl aminopropanol hydrochloride] | – | – | – | – | – | – | – | – | – | – | – | – | – | at least 17 |
